Test results: patent publication US6608082B1, “Treatment of erectile dysfunction using isoquinoline compound melanocortin receptor ligands” (Lion Bioscience AG, priority 1998, dated 2003)

Molecular target: T1, MCR-1 (Homo sapiens, UniProt Q01726)
T1 construct: expressed in transfected cells; host or cells: HEK 293
Assay: Melanocortin receptor binding assay, competition with 125I-HP 467, HEK 293 cells expressing hMCR-1
Details: displacement of 125I-HP 467 at 10 μM isoquinoline compound
Method: All cell culture media and reagents were obtained from GibcoBRL (Gaithersburg Md.), except for COSMIC CALF SERUM (HyClone; Logan Utah).
Cells were suspended in PBS, 10% COSMIC CALF SERUM and 1 mM CaCl2. Cell suspensions were prepared at a density of 2×10^4 cells/ml for HEK 293 cells expressing hMCR-3, hMCR-4 or hMCR-5, and 1×10^5 cells/ml for HEK 293 cells expressing hMCR-1. Suspensions were placed in a water bath and allowed to warm to 37° C. for 1 hr.
Binding assays were performed in a total volume of 250 μl for HEK 293 cells. […] To each tube was added 4×10^3 HEK 293 cells expressing hMCR-3, hMCR-4 or hMCR-5, or 2×10^4 cells expressing hMCR-1. Assays were incubated for 2.5 hr at 37° C.
GF/B filter plates were prepared by soaking for at least one hour in 5 mg/ml BSA and 10 mM CaCl2. Assays were filtered using a Brandel 96-well cell harvester (Brandel Inc.; Gaithersburg, Md.). The filters were washed four times with cold 50 mM Tris, pH 7.4, the filter plates were dehydrated for 2 hr and 35 μl of MICROSCINT was added to each well. Filter plates were counted using a Packard Topcount (Packard Instrument Co.) and data analyzed using GraphPad PRISM v2.0 (GraphPad Software Inc.; San Diego Calif.) and Microsoft EXCEL v5.0a (Microsoft Corp.; Redmond Wash.).
To assay isoquinoline compounds, binding assays were performed in duplicate in a 96 well format. […] A 0.2 ml aliquot of suspended cells was added to each well to give the cell numbers indicate above, and the cells were incubated at 37° C. for 2.5 hr. Cells were harvested on GF/B filter plates as described above and counted.

T1 sequence (Q01726 whole entry): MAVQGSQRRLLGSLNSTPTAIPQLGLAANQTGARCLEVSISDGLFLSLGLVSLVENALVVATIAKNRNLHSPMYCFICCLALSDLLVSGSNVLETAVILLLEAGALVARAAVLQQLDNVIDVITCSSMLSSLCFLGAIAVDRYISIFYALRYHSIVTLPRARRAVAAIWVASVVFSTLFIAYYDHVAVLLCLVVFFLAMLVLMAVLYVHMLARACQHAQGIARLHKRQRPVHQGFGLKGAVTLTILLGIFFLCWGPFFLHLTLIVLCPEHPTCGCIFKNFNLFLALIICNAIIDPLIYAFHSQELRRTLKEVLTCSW

| SMILES | % Disp. MC-1 10 μM (first of duplicate) [%] | % Disp. MC-1 10 μM (second of duplicate) [%] |
| --- | --- | --- |
| CCn1c2ccccc2c2cc(C3C(CNC4CCCCC4)c4ccccc4CN3CCN)ccc21 (stereo not shown) [TRG 2405-83] | 39.1 | 46.9 |
| NCCN1Cc2ccccc2C(CNC2CCCCC2)C1c1cc2c3c(c1O)CCCN3CCC2 (stereo not shown) [TRG 2405-84] | 18.2 | 37.5 |
| CNC(CN)CN1Cc2ccccc2C(CNC2CCCCC2)C1c1ccccc1 (stereo not shown) [TRG 2405-91] | 35.2 | 43.9 |
| CNC(CN)CN1Cc2ccccc2C(CNC2CCCCC2)C1c1ccccc1O (stereo not shown) [TRG 2405-92] | 57.6 | 49.9 |
| CNC(CN)CN1Cc2ccccc2C(CNC2CCCCC2)C1c1ccc2c(c1)OCCO2 (stereo not shown) [TRG 2405-93] | 43.2 | 56.2 |
| CNC(CN)CN1Cc2ccccc2C(CNC2CCCCC2)C1c1cccc2ccccc12 (stereo not shown) [TRG 2405-95] | 45.6 | 51.1 |
| CNC(CN)CN1Cc2ccccc2C(CNC2CCCCC2)C1c1ccc(F)c(F)c1F (stereo not shown) [TRG 2405-96] | 44.5 | 54.4 |
| CNC(CN)CN1Cc2ccccc2C(CNC2CCCCC2)C1c1cc(Cl)cc(Cl)c1Cl (stereo not shown) [TRG 2405-97] | 58.2 | 61.1 |
| CNC(CN)CN1Cc2ccccc2C(CNC2CCCCC2)C1c1cccc2c1OCO2 (stereo not shown) [TRG 2405-98] | 20.1 | 48.3 |
| CNC(CN)CN1Cc2ccccc2C(CNC2CCCCC2)C1c1cccc(F)c1F (stereo not shown) [TRG 2405-99] | 34.7 | 54.2 |
| CNC(CN)CN1Cc2ccccc2C(CNC2CCCCC2)C1c1c(F)cccc1F (stereo not shown) [TRG 2405-101] | 34 | 45.3 |
| CNC(CN)CN1Cc2ccccc2C(CNC2CCCCC2)C1c1ccccc1Br (stereo not shown) [TRG 2405-102] | 44.7 | 50.4 |
| CNC(CN)CN1Cc2ccccc2C(CNC2CCCCC2)C1c1c(F)cccc1Cl (stereo not shown) [TRG 2405-104] | 32.8 | 33.3 |
| CNC(CN)CN1Cc2ccccc2C(CNC2CCCCC2)C1c1ccccc1CN (stereo not shown) [TRG 2405-105] | 20.2 | 49.9 |
| CNC(CN)CN1Cc2ccccc2C(CNC2CCCCC2)C1c1ccccc1F (stereo not shown) [TRG 2405-106] | 40.7 | 44.7 |
| CNC(CN)CN1Cc2ccccc2C(CNC2CCCCC2)C1c1ccco1 (stereo not shown) [TRG 2405-107] | 43.1 | 52.1 |
| CNC(CN)CN1Cc2ccccc2C(CNC2CCCCC2)C1c1ccccc1OC (stereo not shown) [TRG 2405-109] | 34.7 | 44.7 |

| SMILES | % Disp. MC-1 10 μM (first of duplicate) [%] | % Disp. MC-1 10 μM (second of duplicate) [%] |
| --- | --- | --- |
| CNC(CN)CN1Cc2ccccc2C(CNC2CCCCC2)C1c1ccc2ccccc2c1 (stereo not shown) [TRG 2405-110] | 59.5 | 61.6 |
| CNC(CN)CN1Cc2ccccc2C(CNC2CCCCC2)C1c1ccc(Cl)c(Cl)c1 (stereo not shown) [TRG 2405-116] | 62.3 | 63 |
| CNC(CN)CN1Cc2ccccc2C(CNC2CCCCC2)C1c1ccc(F)c(F)c1 (stereo not shown) [TRG 2405-117] | 40.9 | 55.7 |
| CNC(CN)CN1Cc2ccccc2C(CNC2CCCCC2)C1c1cc(O)cc(O)c1 (stereo not shown) [TRG 2405-119] | 25.9 | 39.8 |
| CNC(CN)CN1Cc2ccccc2C(CNC2CCCCC2)C1c1cc(OC)cc(OC)c1 (stereo not shown) [TRG 2405-121] | 35.3 | 38.7 |
| CNC(CN)CN1Cc2ccccc2C(CNC2CCCCC2)C1c1cc(C)c(O)c(C)c1 (stereo not shown) [TRG 2405-122] | 17.6 | 40.7 |
| CNC(CN)CN1Cc2ccccc2C(CNC2CCCCC2)C1c1cccc(Oc2ccc(Cl)c(Cl)c2)c1 (stereo not shown) [TRG 2405-123] | 47.9 | 55.6 |
| CNC(CN)CN1Cc2ccccc2C(CNC2CCCCC2)C1c1cccc(C(F)(F)F)c1 (stereo not shown) [TRG 2405-125] | 59.1 | 58.4 |
| CNC(CN)CN1Cc2ccccc2C(CNC2CCCCC2)C1c1cccc(Br)c1 (stereo not shown) [TRG 2405-127] | 50.6 | 60.3 |
| CNC(CN)CN1Cc2ccccc2C(CNC2CCCCC2)C1c1cccc(CN)c1 (stereo not shown) [TRG 2405-129] | 39.8 | 39.6 |
| CNC(CN)CN1Cc2ccccc2C(CNC2CCCCC2)C1c1ccc(OC)c(F)c1 (stereo not shown) [TRG 2405-130] | 48.9 | 43.3 |
| CNC(CN)CN1Cc2ccccc2C(CNC2CCCCC2)C1c1cccc(F)c1 (stereo not shown) [TRG 2405-131] | 39.2 | 55.7 |
| CNC(CN)CN1Cc2ccccc2C(CNC2CCCCC2)C1c1cccc(OC)c1 (stereo not shown) [TRG 2405-135] | 43.9 | 39.7 |
| CNC(CN)CN1Cc2ccccc2C(CNC2CCCCC2)C1c1cccc(C)c1 (stereo not shown) [TRG 2405-137] | 40.6 | 46 |
| CNC(CN)CN1Cc2ccccc2C(CNC2CCCCC2)C1c1cccc([N+](=O)[O-])c1 (stereo not shown) [TRG 2405-139] | 40.3 | 45.5 |
| CNC(CN)CN1Cc2ccccc2C(CNC2CCCCC2)C1c1cccc(Oc2ccccc2)c1 (stereo not shown) [TRG 2405-140] | 67.6 | 67.8 |

The next lines start with the values.

| % Disp. MC-1 10 μM (first of duplicate) [%] | % Disp. MC-1 10 μM (second of duplicate) [%] | SMILES |
| --- | --- | --- |
| 35.3 | 0 | NCCN1Cc2ccccc2C(CNC2CCCCC2)C1c1ccncc1 (stereo not shown) [TRG 2405-74] |
| 38.9 | 17.6 | NCCN1Cc2ccccc2C(CNC2CCCCC2)C1c1ccnc2ccccc12 (stereo not shown) [TRG 2405-75] |
| 33.3 | 40.8 | Cc1ccc(C2C(CNC3CCCCC3)c3ccccc3CN2CCN)s1 (stereo not shown) [TRG 2405-78] |
| 17.3 | 26.3 | Cc1ccc(C2C(CNC3CCCCC3)c3ccccc3CN2CCN)o1 (stereo not shown) [TRG 2405-79] |
| 0 | 43.1 | Cc1cccc(C2C(CNC3CCCCC3)c3ccccc3CN2CCN)n1 (stereo not shown) [TRG 2405-81] |
| 18.5 | 29.6 | NCCN1Cc2ccccc2C(CNC2CCCCC2)C1c1ccc2cccc(O)c2n1 (stereo not shown) [TRG 2405-82] |
| 21.9 | 22.1 | CS(=O)(=O)c1ccc(C2C(CNC3CCCCC3)c3ccccc3CN2CCN)cc1 (stereo not shown) [TRG 2405-87] |
| 5.5 | 0 | COc1ccc(C2C(CNC3CCCCC3)c3ccccc3CN2CCN)cc1S(=O)(=O)O (stereo not shown) [TRG 2405-88] |
| 21.5 | 31.2 | NCCN1Cc2ccccc2C(CNC2CCCCC2)C1c1ccc(Br)o1 (stereo not shown) [TRG 2405-89] |
| 48.4 | 45.9 | NCCN1Cc2ccccc2C(CNC2CCCCC2)C1c1nccs1 (stereo not shown) [TRG 2405-90] |
| 46 | 46.6 | CNC(CN)CN1Cc2ccccc2C(CNC2CCCCC2)C1c1ncc[nH]1 (stereo not shown) [TRG 2405-108] |
| 40 | 58.5 | CNC(CN)CN1Cc2ccccc2C(CNC2CCCCC2)C1c1cccs1 (stereo not shown) [TRG 2405-113] |
| 51.6 | 51.7 | CNC(CN)CN1Cc2ccccc2C(CNC2CCCCC2)C1c1ccoc1 (stereo not shown) [TRG 2405-132] |
| 15 | 16.2 | CNC(CN)CN1Cc2ccccc2C(CNC2CCCCC2)C1c1cccnc1 (stereo not shown) [TRG 2405-141] |
